Assay results as given in patent publication US20220370453A1 (Storm Therapeutics Ltd, priority 2019, published 2022).

Tests used:
BCDIN3D [1] = target: T1, BCDIN3D (Homo sapiens, UniProt Q7Z5W3); assay: BCDIN3D IC50 RFMS (RapidFire) assay with mini-helix; format: biochemical; conditions: 25 nM enzyme
T1 sequence (Q7Z5W3 1-292): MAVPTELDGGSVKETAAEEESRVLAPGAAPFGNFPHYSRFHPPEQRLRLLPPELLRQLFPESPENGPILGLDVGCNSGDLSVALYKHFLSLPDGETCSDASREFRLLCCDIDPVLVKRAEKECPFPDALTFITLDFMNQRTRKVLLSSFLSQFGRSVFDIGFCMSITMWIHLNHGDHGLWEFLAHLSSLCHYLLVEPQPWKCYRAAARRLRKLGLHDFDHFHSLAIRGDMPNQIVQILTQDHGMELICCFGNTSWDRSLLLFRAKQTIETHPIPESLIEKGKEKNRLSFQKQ
How it was run: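 25 nM enzyme preincubated 10 min at room temperature with compound (1% DMSO) in 25 mM Tris pH 8.0, 10 mM DTT, 1 mM EDTA, 0.03% BSA. Reaction started with 0.2 μM mini-helix plus 6 μM SAM, run 1 h at 37 °C, quenched with TCA; SAH product quantified by RapidFire MS against isotopic SAH standards.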

BCDIN3D [2] = target: T1, BCDIN3D; assay: BCDIN3D InCellPulse thermal stability assay in transfected A549 cells; format: cell-based; conditions: heat shock 58° C. 15 min
How it was run: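 A549 cells transiently expressing BCDIN3D N-terminally fused to ePL ProLabel tag, 1500 cells/well, pre-incubated 1 h at 37 °C with compound (0.6% DMSO). Heat shock 58 °C for 15 min; remaining soluble fusion detected by split β-galactosidase complementation luminescence.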

[3] = mini-helix substrate 0.2 μM, SAM 6 μM
[4] = transiently transfected A549 cells
[5] = mini-helix 0.2 μM and SAM 6 μM as substrates, 1 hr at 37° C.
[6] = A549 cells transiently transfected with ePL-BCDIN3D, 1 h pre-incubation

| SMILES | IC50 (BCDIN3D [1]; [3]) | IC50 (BCDIN3D [2]; [4]) | IC50 (BCDIN3D [1]; [5]) | IC50 (BCDIN3D [2]; [6]) |
| --- | --- | --- | --- | --- |
| CNc1nc(NC[C@H](N)c2ccccc2)nc2c1cnn2C [Compound 4.40, 6-N-[(2R)-2-amino-2-phenylethyl]-4-N,1-dimethylpyrazolo[3,4-d]pyrimidine-4,6-diamine] | 3630 nM | 4790 nM |  |  |
| Cc1ccc(CNc2nc(NCC3(N)CC3)nc3c2cnn3C)cc1Cl [Compound 2.01, 6-N-[(1-Aminocyclopropyl)methyl]-4-N-[(3-chloro-4-methylphenyl)methyl]-1-methylpyrazolo[3,4-d]pyrimidine-4,6-diamine] | 275 nM | 707 nM |  |  |
| Cn1ncc2c(NCC3CC3)nc(NCC(N)c3ccccc3)nc21 (centres unmarked) [Compound 4.56, 6-N-(2-amino-2-phenylethyl)-4-N-(cyclopropylmethyl)-1-methylpyrazolo[3,4-d]pyrimidine-4,6-diamine] | 3470 nM | 7270 nM |  |  |
| Cn1ncc2c(NC(C)(C)C(F)(F)F)nc(NC[C@H](N)c3ccccc3)nc21 [Compound 4.75, N6-[(2R)-2-amino-2-phenyl-ethyl]-1-methyl-N4-(2,2,2-trifluoro-1,1-dimethyl-ethyl)pyrazolo[3,4-d]pyrimidine-4,6-diamine] | 240 nM | 711 nM |  |  |
| Cn1ncc2c(NCC3CC3(Cl)Cl)nc(NC[C@H](N)c3ccccc3)nc21 (stereo partly drawn) [Compound 4.115, N6-[(2R)-2-amino-2-phenyl-ethyl]-N4-[(2,2-dichlorocyclopropyl)methyl]-1-methyl-pyrazolo[3,4-d]pyrimidine-4,6-diamine] | 39 nM | 271 nM |  |  |
| Cn1ncc2c(Nc3ccc(C(F)(F)F)nc3)nc(NC[C@H](N)c3ccccc3)nc21 [Compound 7.08, N6-[(2R)-2-amino-2-phenyl-ethyl]-1-methyl-N4-[6-(trifluoromethyl)-3-pyridyl]pyrazolo[3,4-d]pyrimidine-4,6-diamine] |  |  | 33.4 nM | 223 nM |
| [2H]C([2H])([2H])n1ncc2c(NC(C)(C)C)nc(NCC(N)c3ccccc3F)nc21 (centres unmarked) [Compound 5.14, N6-[2-amino-2-(2-fluorophenyl)ethyl]-N4-tert-butyl-1-(trideuteriomethyl)pyrazolo[3,4-d]pyrimidine-4,6-diamine] | 294 nM | 429 nM |  |  |

Continued, values first:

| IC50 (BCDIN3D [1]; [3]) | IC50 (BCDIN3D [2]; [4]) | IC50 (BCDIN3D [1]; [5]) | IC50 (BCDIN3D [2]; [6]) | SMILES |
| --- | --- | --- | --- | --- |
| 1440 nM | 2000 nM |  |  | Cn1ncc2c(Nc3ccccc3)nc(NCC3(N)CCCC3)nc21 [Compound 3.21, 6-N-[(1-aminocyclopentyl)methyl]-1-methyl-4-N-phenylpyrazolo[3,4-d]pyrimidine-4,6-diamine] |
| 383 nM | 4670 nM |  |  | Cn1ncc2c(Nc3ccc(C(F)(F)F)cc3)nc(NCC3(N)COC3)nc21 [Compound 3.28, 6-N-[(3-Aminooxetan-3-yl)methyl]-1-methyl-4-N-[4-(trifluoromethyl)phenyl]pyrazolo[3,4-d]pyrimidine-4,6-diamine] |
|  |  | 1980 nM | 3330 nM | Cn1ncc2c(Nc3ccc(C(F)(F)F)cc3)nc(NCCN)nc21 [Compound 1.01, N6-(2-Aminoethyl)-1-methyl-N4-[4-(trifluoromethyl)phenyl]pyrazolo[3,4-d]pyrimidine-4,6-diamine] |
| 50 nM | 379 nM |  |  | [2H]C([2H])([2H])n1ncc2c(Nc3ccc(C(F)(F)F)cc3)nc(NCC3(N)CC3)nc21 [Compound 2.49, N6-[(1-aminocyclopropyl)methyl]-1-(trideuteriomethyl)-N4-[4-(trifluoromethyl)phenyl]pyrazolo[3,4-d]pyrimidine-4,6-diamine] |
| 6900 nM | 8890 nM |  |  | Cn1ncc2c(Nc3ccc(C(F)(F)F)cc3)cc(NCC3(N)CC3)nc21 [Compound 2.52, N6-[(1-Aminocyclopropyl)methyl]-1-methyl-N4-[4-(trifluoromethyl)phenyl]pyrazolo[3,4-b]pyridine-4,6-diamine] |
| 176 nM | 815 nM |  |  | Cn1ncc2c(Nc3ccc(OC(F)(F)F)cc3)nc(NCC3(N)CC3)nc21 [Compound 2.32, 6-N-[(1-aminocyclopropyl)methyl]-1-methyl-4-N-[4-(trifluoromethoxy)phenyl]pyrazolo[3,4-d]pyrimidine-4,6-diamine] |
